What all share (format): cell-based
The subject of assay [1] is ARPE-19. The experiment in a line: Cell death protection, LDH release after RSL3. Particulars: ARPE-19, RSL3 0.3 μM, 24 hours. As for the experimental part:
(§1) To confirm the protective effect on cardiac cells, adrenal medulla cells, renal fibroblasts, retinal epithelial cells, lung epithelial cells, renal proximal tubule epithelial cells, hippocampal neurons, and fibroblasts, 4×10^3 to 1.2×10^4 cells of each cell type were dispensed into 96-well plates and cultured for 18 to 24 hours. Each well was treated with the example compound, which was diluted so that the final concentration became 0.001, 0.003, 0.01, 0.03, 0.1, 0.3, 1, 3, and 10 μM, and culture was performed for 15 to 20 minutes. […] To confirm the cell protecting effect of the example compounds, a cytotoxicity LDH assay kit [Dojindo; CK12] was used to measure the level of extracellular secretion of lactate dehydrogenase (LDH). Briefly, at the time point when the 24-hour treatment of each cell type with RSL3 ended, 70 μL of each supernatant from cell culture medium was taken and transferred to a new 96-well plate. After adding 70 μL/well (the same amount as the sample) of the assay buffer included in the kit, the resulting mixture was wrapped with foil and allowed to react at room temperature for 15 to 20 minutes. After observing the color change of the sample, 35 μL/well of a stop solution was added, and the absorbance value at 490 nm was measured using an iD3 spectrophotometer to calculate the EC50 value.
(§2) Table 3. Effect of protecting cardiac cells, adrenal medulla cells, renal fibroblasts, retinal epithelial cells, lung epithelial cells, renal proximal tubule epithelial cells, hippocampal neurons, and fibroblasts against cell death induced by RSL3.
Background: Release of lactate dehydrogenase indicates damage to the cell membrane.

Assay [2] relates to H9C2. Briefly: Cell death protection, LDH release after RSL3. Particulars: H9C2, RSL3 0.5 μM, 24 hours. As for the experimental part:
as §1, §2

Assay [3] relates to HK-2. The experiment in a line: Cell death protection, LDH release after RSL3. To be noted: HK-2, RSL3 0.3 μM, 24 hours. As to the method: as §1, §2
In assay [4] the test system is HT-22. Briefly: Cell death protection, LDH release after RSL3. Particulars: HT-22, RSL3 0.3 μM, 24 hours. As to the method:
as §1, §2

In assay [5] the test system is MLE-12. The experiment in a line: Cell death protection, LDH release after RSL3. Particulars: 24 hours. As for the experimental part: as §1, §2
Assay [6] has as its system NIH/3T3. Briefly: Cell death protection, LDH release after RSL3. To be noted: 24 hours. As to the method:
as §1, §2

Assay [7] has as its system NRK-49F. Briefly: Cell death protection, LDH release after RSL3. To be noted: RSL3 3 μM, 24 hours. As for the experimental part:
as §1, §2

The test system of assay [8] is PC-12. Briefly: Cell death protection, LDH release after RSL3. Particulars: PC-12, RSL3 0.3 μM, 24 hours. As for the experimental part: as §1, §2
Assay [9] concerns MLE-12 cells. The experiment in a line: Cytosolic ROS (CM-H2DCFDA) after RSL3. To be noted: MLE-12, 1 μM RSL3, 2 hours. As for the experimental part:
To confirm the protective effect against cytosolic reactive oxygen species in lung epithelial cells, 2×10^5 MLE-12 cells were dispensed into each well of a 12-well plate and cultured for 18 to 24 hours. Each well was treated with Example Compound 1 and ferrostatin-1, which were diluted so that their final concentration became 0.01, 0.1, 1, and 10 μM, and culture was performed for 15 minutes. Afterwards, the cells were treated so that the final concentration of RSL3 became 1 μM, and cultured for 2 hours. To confirm the inhibitory effect against cytosolic reactive oxygen species, CM-H2DCFDA (general oxidative stress indicator) [Invitrogen™; C6827] was used. According to the manufacturer's experimental method, CM-H2DCFDA was diluted in the cell culture medium so that the final concentration became 5 μM, and the cells were treated therewith and allowed to react for 30 minutes to perform fluorescent staining. The MLE-12 cells fluorescently stained with CM-H2DCFDA were detached from the 12-well plate using 0.25% Trypsin-EDTA and transferred to a microtube, and the fluorescence (excitation/absorption 492 to 495 nm/517 to 527 nm) was measured using BD FACSLyric™ to calculate the rate of change compared to the control group.

Assay [10] deals with MLE-12 cells. Briefly: Cytosolic iron ion accumulation (FerroOrange, flow cytometry) after RSL3. Particulars: MLE-12, 1 μM RSL3, 8 hours. As to the method:
(§3) To confirm the inhibitory effect against cytosolic iron ion accumulation in lung epithelial cells, 2×10^5 MLE-12 cells were dispensed into each well of a 12-well plate and cultured for 18 to 24 hours. Each well was treated with Example Compound 1 and ferrostatin-1, which were diluted so that their final concentration became 0.01, 0.1, 1, and 10 μM, and culture was performed for 15 minutes. Afterwards, the cells were treated so that the final concentration of RSL3 became 1 μM, and cultured for 8 hours. To confirm the inhibitory effect against cytosolic iron ion accumulation, FerroOrange [DOJINDO; F374] was used. According to the manufacturer's experimental method, FerroOrange was diluted in the cell culture medium so that the final concentration became 1 μM, and the cells were treated therewith and allowed to react for 30 minutes to perform fluorescent staining. The MLE-12 cells fluorescently stained with FerroOrange were detached from the 12-well plate using 0.25% Trypsin-EDTA and transferred to a microtube, and the fluorescence (excitation/absorption 580 nm/543 nm) was measured using BD FACSLyric™ to calculate the rate of change compared to the control group (RSL3 untreated group).
(Flow cytometry measures light scatter and fluorescence of single cells or particles in a stream.)

The subject of assay [11] is MLE-12 cells. The experiment in a line: Mitochondrial iron ion accumulation (Mito-FerroGreen, flow cytometry) after RSL3. Particulars: MLE-12, 1 μM RSL3, 8 hours. As for the experimental part: as §3, with “mitochondrial” for “cytosolic”, “Mito-FerroGreen” for “FerroOrange”, “M489]” for “F374]”, “505 nm/535” for “580 nm/543”, “group.” for “group (RSL3 untreated group).”

In assay [12] the test system is H9C2 cells. Briefly: Cell death protection by real-time imaging after erastin. Particulars: H9C2, erastin 1 μM, compound 0.1 μM, imaged every 3 hours for 24 hours. As to the method:
To confirm a cell death protection effect on cardiac cells through images, 2.5×10^5 H9C2 cells were dispensed into each confocal dish and cultured for 2 days. Each dish was treated with Example Compound 1 and ferrostatin-1, which were diluted to a final concentration of 0.1 μM, and culture was performed for 20 minutes. Afterwards, the cells were treated with erastin so that the final concentration became 1 μM, and images were taken using real-time imaging equipment [Nanolive; CX-A] every 3 hours for 24 hours to confirm changes in the H9C2 cells.

Each structure is given as a SMILES string.

2 compounds from patent US20240269145A1, “USE OF INDOLE COMPOUND AS INHIBITORS OF FERROPTOSIS” (MITOIMMUNE THERAPEUTICS INC., priority 2023, published 2024) can be followed below.

In the case of `O=S1(=O)CCN(Cc2cc(NC3CCOCC3)c3[nH]c(-c4ccccc4)cc3c2)CC1` [Example 1, 5-[(1,1-dioxido-4-thiomorpholinyl)methyl]-2-phenyl-N-(tetrahydro-2H-pyran-4-yl)-1H-indole-7-amine], the EC50 in assay [1] (Homo sapiens) is at most 0.03 µM; in [2] (Rattus norvegicus) it was 0.03 to 0.1 µM; in assay [3] (Homo sapiens) it was at most 0.03 µM; in assay [4] (Mus musculus) it was at most 0.03 µM; in assay [5] (MLE12, MLE-12, RSL3 1 μM), at most 0.03 µM; in assay [6] (Mus musculus, NIH3T3, NIH/3T3, RSL3 3 μM), 0.03 to 0.1 µM. In addition, the results for the EC50 in assay [7] (Rattus norvegicus) and in [8] (Rattus norvegicus) were at most 0.03 µM and 0.03 to 0.1 µM, respectively. In addition, in assay [9], the “concentration at which cytosolic reactive oxygen species were significantly decreased” value was 0.01 µM. In addition, the “concentration at which cytosolic iron ion accumulation was significantly decreased” value in assay [10] amounted to 0.1 µM. In addition, in assay [11], the “concentration at which mitochondrial iron ion accumulation was significantly decreased” value was 0.01 µM. In assay [12], the “time for which cell death was inhibited” value is “up to 24 hours”.

Consider `CCOC(=O)c1ccc(NC2CCCCC2)c(N)c1` [Fer-1, ferrostatin-1, reference compound], for which the EC50 in assay [1] was in the range of 0.03 to 0.1 µM; in assay [2] it was 0.03 to 0.1 µM; in assay [3], 0.03 to 0.1 µM; in assay [4], 0.03 to 0.1 µM; in assay [5] (MLE-12, RSL3 1 μM), 0.03 to 0.1 µM; in [6] (NIH/3T3, RSL3 3 μM), 0.03 to 0.1 µM. In addition, the EC50 in assay [7] and in assay [8] was 0.03 to 0.1 µM in each case. In addition, the “concentration at which cytosolic reactive oxygen species were significantly decreased” value in assay [9] is 0.1 µM. In assay [10], the “concentration at which cytosolic iron ion accumulation was significantly decreased” value was 1 µM. Further, in assay [11], the “concentration at which mitochondrial iron ion accumulation was significantly decreased” value stood at 0.1 µM. For the same compound, the “time for which cell death was inhibited” value in assay [12] is “up to 18 hours”. For the same compound, in assay [12], the “time from which cell death was observed” value is at least 21 h.

Broadly, the EC50 is the midpoint of the concentration-response curve. Lower therefore signals an effect from little substance.
